Here are results for one molecule from patent publication US20260287586A1, “METHODS OF TREATING TKI-RESISTANT AND SDH-DEFICIENT GIST” (priority 2023, published 2026).

Structures are written as SMILES. Where two headings read alike, the source gives them in different places.

For series [1] the following is noted: for AUClast: fed, Day 27 steady state, mean (SD). As for the experimental part:
Noncompartmental pharmacokinetic (PK) analysis was conducted using Phoenix WinNonlin software (Version 6.4).

For series [2], the system named is PC12 or PC12 #5F7 (SDHB KD) cells. The experiment in a line: Cell death assay (AO/PI staining). The series is classed as cell-based, rat. To be noted: 24 hours exposure; FIG. 2B left. Here is the method:
Cells were extracted from SDH-deficient patient tumor tissues, seeded into 96-well plates, and incubated for 24 hours in GIST culture medium. […] Right panel, Colony formation assay in renal carcinoma cells 7860 (SDHB-wild-type) and OS-RC-2 (SDHB-deficient). Cells were seeded into 6-well plates and incubated overnight in complete culture medium.
Rat pheochromocytoma cells (PC12 or PC12 SDHB KD cells PC12 #5F7) were seeded into 24-well plates and incubated overnight in complete culture medium. […] The cell suspension was mixed at a 1:1 ratio with Viastain™ AOPI Staining solution (acridine orange/propidium iodide, #2210170205, Nexelcom Bioscience, Lawrence, MA, USA). After staining, dead cells were counted on a Cellometer® Auto 2000 Cell Counter (Nexelcom).

As to `Cc1ccc(C(=O)Nc2ccc(CN3CCN(C)CC3)c(C(F)(F)F)c2)cc1C#Cc1cnc2[nH]ncc2c1` [Olverembatinib, olverembatinib], the AUClast in series [1] (20 mg QOD oral, 2 subjects) stood at 228 ± 6.4 h*ng/m; in series [1] (30 mg QOD oral, 4 subjects), 307 ± 121 h*ng/m; in series [1] (40 mg QOD oral, 15 subjects) it was 473 ± 177 h*ng/m; in series [1] (50 mg QOD oral, 3 subjects), 518 ± 174 h*ng/m. In addition, the “accumulation after multiple-dose administration” value in series [1] (20 to 50 mg QOD) is reported as “no significant accumulation”. In addition, the “dose proportionality of Cmax and AUClast” value in series [1] (dose range of 20 to 50 mg) is “approximately dose-proportional increase”. Besides, the “cell death activity in SDHB KD versus parental cells” value in series [2] was “dose-dependently more potent activity in PC12 #5F7 than in parental PC12 cells”.
